According to patent US9079901B2, “Fused heterocyclic compounds as ion channel modulators” (Gilead Sciences, Inc., priority 2010, dated 2015):

Target: wild-type human cardiac sodium channel, hNav1.5 (late sodium current) in HEK293 cells (Homo sapiens, UniProt Q14524)
Assay: Late INa screening assay (automated whole-cell patch clamp, PatchXpress)
Assay type: cell-based
Conditions: late INa generated with 10 μM Tefluthrin (or 50 nM ATX II), HEK293 hNav1.5; for inhibition at 1 µM: HEK293, compound at 1 μM, read-out: Late INa 1 μM (percent block of late INa)
Protocol: The late sodium current (Late INa) and peak sodium current (Peak INa) assays are performed on an automated electrophysiology platform, PatchXpress 7000A (MDS Analytical Technologies, Sunnyvale, Calif.), which uses the whole cell patch clamp technique to measure currents through the cell membrane of up to 16 cells at a time. The assay uses an HEK293 (human embryonic kidney) cell line heterologously expressing the wild-type human cardiac sodium channel, hNav1.5, purchased from Millipore (Billerica, Mass.). No beta subunits were coexpressed with the Na channel alpha subunit. Cells are maintained with standard tissue culture procedures and stable channel expression is maintained with 400 μg/ml Geneticin in the culture medium. Cells isolated for use on PatchXpress are incubated for 5 minutes in Versene 1× and then for 2 minutes in 0.0125% Trypsin-EDTA (both at 37° C.) to ensure that 80-90% of the cells are single and not part of a cell cluster. Experiments are carried out at 24-27° C.
For both the Late INa and Peak INa assays, series resistance compensation is set to 50% and whole-cell compensation is performed automatically. Currents are low-pass filtered at 10 kHz and digitized at 31.25 kHz. Currents through open sodium channels are automatically recorded and stored in the DataXpress2 database (MDS Analytical Technologies, Sunnyvale, Calif.). Analysis is performed using DataXpress2 analysis software and data are compiled in Excel.
Compound stocks are routinely made in glass vials to 10 mM in dimethyl sulfoxide (DMSO). In some cases, when compounds are not soluble in DMSO, they are made in 100% ethanol. Stocks are sonicated as necessary. The extracellular solution for screening Late INa is composed of: 140 mM NaCl, 4 mM KCl, 1.8 mM CaCl2, 0.75 mM MgCl2, and 5 mM HEPES with pH adjusted to 7.4 using NaOH. The extracellular solution for screening Peak INa is composed of: 20 mM NaCl, 120 mM N-methyl-D glucamine, 4 mM KCl, 1.8 mM CaCl2, 0.75 mM MgCl2, and 5 mM HEPES with pH adjusted to 7.4 using HCl. The intracellular solution used to perfuse the inside of the cells for both the Late INa and Peak INa assays contains: 120 mM CsF, 20 mM CsCl, 5 mM EGTA, 5 mM HEPES and pH adjusted to 7.4 with CsOH. Compounds are diluted in extracellular solution to 10 μM in glass vials and then transferred to glass well plates before robotic addition to the cells. The 0Na extracellular solution used at the end of each experiment for the Late INa and Peak INa assays to measure baseline current contains: 140 mM N-methyl-D-glucamine; 4 mM KCl; 1.8 mM CaCl2; 0.75 mM MgCl2; 5 mM HEPES and pH was adjusted to 7.4 with HCl.
For the Late INa assay, sodium channels are activated every 10 seconds (0.1 Hz) by depolarizing the cell membrane to −20 mV for 250 milliseconds (ms) from a holding potential of −120 mV. In response to a −20 mV voltage step, typical Nav1.5 sodium currents activate rapidly to a peak negative current and then inactivate nearly completely within 3-4 ms.
All compounds are tested to determine their activity in blocking the late sodium current. Late INa current is generated by adding 10 μM Tefluthrin (pyrethroid) to the extracellular solution while recording Na currents. For some experiments, 50 nM ATX II (sea anemone toxin), another late INa activator, was used to generate the late component. Both activators generate late components that are large enough that block of the late component by compounds can be measured easily. For the purposes of the screening, late INa is defined as the mean current between 225 ms and 250 ms after stepping to −20 mV to activate Na channels. After establishing the whole cell recording configuration, late INa activators are added to each well 4 times over a 16-17 minute period so that the late component of the Na current reaches a stable value. Compounds are then added (typically at 10 μM), in the presence of late INa activator, with 3 additions over the course of 7 or 8 minutes. […]

wild-type human cardiac sodium channel, hNav1.5 (late sodium current) in HEK293 cells, sequence (Q14524 whole entry): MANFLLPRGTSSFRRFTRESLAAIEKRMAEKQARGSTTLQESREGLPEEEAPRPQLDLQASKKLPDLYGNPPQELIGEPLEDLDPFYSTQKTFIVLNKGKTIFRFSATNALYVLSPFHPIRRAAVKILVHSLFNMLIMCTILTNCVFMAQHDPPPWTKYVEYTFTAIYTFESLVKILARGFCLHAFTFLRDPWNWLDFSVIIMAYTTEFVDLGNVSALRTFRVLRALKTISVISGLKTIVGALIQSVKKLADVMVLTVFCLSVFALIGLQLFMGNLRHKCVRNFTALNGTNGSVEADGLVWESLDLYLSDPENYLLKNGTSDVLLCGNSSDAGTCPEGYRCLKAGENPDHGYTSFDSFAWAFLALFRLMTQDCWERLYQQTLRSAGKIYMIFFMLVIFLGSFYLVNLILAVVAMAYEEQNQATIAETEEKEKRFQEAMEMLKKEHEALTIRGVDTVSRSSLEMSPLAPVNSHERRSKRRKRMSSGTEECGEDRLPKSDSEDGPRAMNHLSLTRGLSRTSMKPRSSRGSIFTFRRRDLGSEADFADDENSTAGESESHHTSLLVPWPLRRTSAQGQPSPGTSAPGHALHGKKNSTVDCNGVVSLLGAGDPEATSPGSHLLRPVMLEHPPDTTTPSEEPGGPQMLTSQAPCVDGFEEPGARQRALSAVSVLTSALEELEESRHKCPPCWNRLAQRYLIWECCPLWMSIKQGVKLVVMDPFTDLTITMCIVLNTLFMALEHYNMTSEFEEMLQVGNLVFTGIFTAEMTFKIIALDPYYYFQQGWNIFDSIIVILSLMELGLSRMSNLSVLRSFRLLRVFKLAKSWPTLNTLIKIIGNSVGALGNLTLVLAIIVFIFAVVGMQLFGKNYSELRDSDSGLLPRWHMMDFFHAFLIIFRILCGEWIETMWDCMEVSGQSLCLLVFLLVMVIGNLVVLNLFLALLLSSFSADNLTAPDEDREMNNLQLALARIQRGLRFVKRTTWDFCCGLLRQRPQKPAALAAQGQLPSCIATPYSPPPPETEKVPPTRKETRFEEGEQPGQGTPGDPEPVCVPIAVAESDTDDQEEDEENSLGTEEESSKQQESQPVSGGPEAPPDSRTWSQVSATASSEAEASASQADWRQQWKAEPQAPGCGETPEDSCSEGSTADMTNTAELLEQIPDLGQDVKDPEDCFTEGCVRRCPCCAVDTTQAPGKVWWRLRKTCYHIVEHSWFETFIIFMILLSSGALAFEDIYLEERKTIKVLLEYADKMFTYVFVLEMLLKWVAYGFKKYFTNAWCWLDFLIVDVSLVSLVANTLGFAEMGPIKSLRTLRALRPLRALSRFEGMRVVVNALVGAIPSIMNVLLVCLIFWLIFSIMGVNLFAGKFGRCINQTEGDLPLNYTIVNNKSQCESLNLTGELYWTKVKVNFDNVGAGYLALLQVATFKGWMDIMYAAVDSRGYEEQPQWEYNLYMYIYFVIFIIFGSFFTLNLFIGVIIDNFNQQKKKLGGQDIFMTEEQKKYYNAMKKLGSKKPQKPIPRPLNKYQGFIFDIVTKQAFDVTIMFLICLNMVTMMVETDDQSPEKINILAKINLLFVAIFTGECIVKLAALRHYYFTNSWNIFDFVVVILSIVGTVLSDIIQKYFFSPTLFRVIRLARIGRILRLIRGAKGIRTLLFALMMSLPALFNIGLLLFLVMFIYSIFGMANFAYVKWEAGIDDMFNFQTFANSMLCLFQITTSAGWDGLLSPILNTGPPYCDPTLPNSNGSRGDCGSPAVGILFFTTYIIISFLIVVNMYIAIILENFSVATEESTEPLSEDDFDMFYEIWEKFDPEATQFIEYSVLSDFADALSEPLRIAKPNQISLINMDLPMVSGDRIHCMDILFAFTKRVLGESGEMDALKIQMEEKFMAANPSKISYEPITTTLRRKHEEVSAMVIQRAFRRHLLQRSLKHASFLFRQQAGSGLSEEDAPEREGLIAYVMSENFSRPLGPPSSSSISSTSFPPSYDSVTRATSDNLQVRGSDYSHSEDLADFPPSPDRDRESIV

**Q.** Which inhibition at 1 µM does the source give for CC(C)Oc1ccnc(OCCn2nc3ccc(-c4ccc(OC(F)(F)F)cc4)cn3c2=O)n1 [compound 177, 2-(2-(4-isopropoxypyrimidin-2-yloxy)ethyl)-6-(4-(trifluoromethoxy)phenyl)-[1,2,4]triazolo[4,3-a]pyridin-3(2H)-one] here?
**A.** 25.8%

**Q.** For CO[C@H](COc1ccccc1Cl)Cn1nc2ccc(-c3ccc(OC(F)(F)F)cc3)cn2c1=O [compound 95, (S)-2-(3-(2-chlorophenoxy)-2-methoxypropyl)-6-(4-(trifluoromethoxy)phenyl)-[1,2,4]triazolo[4,3-a]pyridin-3(2H)-one], which inhibition at 1 µM is on record?
**A.** 42.5%

**Q.** With CC(C)(C)c1cnc(Cn2nc3ccc(-c4ccc(C(F)(F)F)cc4)cn3c2=O)o1 [compound 184, 2-((5-tert-butyloxazol-2-yl)methyl)-6-(4-(trifluoromethyl)phenyl)-[1,2,4]triazolo[4,3-a]pyridin-3(2H)-one] as the compound, how does the inhibition at 1 µM read?
**A.** 18.9%

**Q.** How did the inhibition at 1 µM turn out when COC[C@H](Cn1nc2ccc(-c3ccc(OC(F)(F)F)cc3)cn2c1=O)Oc1ncccc1C(F)(F)F [compound 91, (S)-2-(3-methoxy-2-(3-(trifluoromethyl)pyridin-2-yloxy)propyl)-6-(4-(trifluoromethoxy)phenyl)-[1,2,4]triazolo[4,3-a]pyridin-3(2H)-one] was run?
**A.** 58.3%

**Q.** O=c1n(Cc2nonc2-c2ccccc2)nc2ccc(-c3ccc(OC(F)(F)F)cc3)cn12 [compound 17, 2-((4-phenyl-1,2,5-oxadiazol-3-yl)methyl)-6-(4-(trifluoromethoxy)phenyl)-[1,2,4]triazolo[4,3-a]pyridin-3(2H)-one] was tested. Which inhibition at 1 µM did it give?
**A.** 18.4%

**Q.** How did the inhibition at 1 µM turn out when COc1ccccc1OCC(O)Cn1nc2ccc(-c3ccc(OC(F)(F)F)cc3)cn2c1=O (stereo not drawn) [compound 4, 2-(2-hydroxy-3-(2-methoxyphenoxy)propyl)-6-(4-(trifluoromethoxy)phenyl)-[1,2,4]triazolo[4,3-a]pyridin-3(2H)-one] was run?
**A.** 20.8%

**Q.** Which inhibition at 1 µM does the source give for Cc1noc(Cn2nc3ccc(-c4ccc(F)c(F)c4)cn3c2=O)n1 [compound 150, 6-(3,4-difluorophenyl)-2-((3-methyl-1,2,4-oxadiazol-5-yl)methyl)-[1,2,4]triazolo[4,3-a]pyridin-3(2H)-one] here?
**A.** 12.8%

**Q.** How did the “Late INa 1 μM (percent block of late INa)” value (compound at 1 μM) turn out when N#Cc1ccnc(OCCn2nc3ccc(-c4ccc(OC(F)(F)F)cc4)cn3c2=O)n1 [compound 129] was run?
**A.** 16.1133%

**Q.** COc1cc(F)ccc1OCC(Cn1nc2ccc(-c3ccc(OC(F)(F)F)cc3)cn2c1=O)OC (stereo not drawn) [compound 104, 2-(3-(4-fluoro-2-methoxyphenoxy)-2-methoxypropyl)-6-(4-(trifluoromethoxy)phenyl)-[1,2,4]triazolo[4,3-a]pyridin-3(2H)-one] was tested. Which inhibition at 1 µM did it give?
**A.** 41.5%

**Q.** How did the inhibition at 1 µM turn out when O=c1n(CCc2ccc(-c3cccnc3)cn2)nc2ccc(-c3ccc(OC(F)(F)F)cc3)cn12 [compound 74, 2-(2-(3,3′-bipyridin-6-yl)ethyl)-6-(4-(trifluoromethoxy)phenyl)-[1,2,4]triazolo[4,3-a]pyridin-3(2H)-one] was run?
**A.** 11.1%

**Q.** How did the inhibition at 1 µM turn out when O=c1n(Cc2nc(-c3c(Cl)cccc3Cl)no2)nc2ccc(-c3ccc(OC(F)(F)F)cc3)cn12 [compound 9, 2-((3-(2,6-dichlorophenyl)-1,2,4-oxadiazol-5-yl)methyl)-6-(4-(trifluoromethoxy)phenyl)-[1,2,4]triazolo[4,3-a]pyridin-3(2H)-one] was run?
**A.** 29.8%

**Q.** Which inhibition at 1 µM does the source give for Cc1cccnc1-c1cc(Cn2nc3ccc(-c4ccc(OC(F)(F)F)cc4)cn3c2=O)no1 [compound 145, 2-((5-(3-methylpyridin-2-yl)isoxazol-3-yl)methyl)-6-(4-(trifluoromethoxy)phenyl)-[1,2,4]triazolo[4,3-a]pyridin-3(2H)-one] here?
**A.** 37.7%

**Q.** For Cn1c(CCn2nc3ccc(-c4ccc(OC(F)(F)F)cc4)cn3c2=O)nc2ccccc21 [compound 97, 2-(2-(1-methyl-1H-benzo[d]imidazol-2-yl)ethyl)-6-(4-(trifluoromethoxy)phenyl)-[1,2,4]triazolo[4,3-a]pyridin-3(2H)-one], which inhibition at 1 µM is on record?
**A.** 16%

**Q.** Which inhibition at 1 µM does the source give for O=c1n(CCCc2ccc(F)c(Br)c2)nc2ccc(-c3ccc(OC(F)(F)F)cc3)cn12 [compound 64, 2-(3-(3-bromo-4-fluorophenyl)propyl)-6-(4-(trifluoromethoxy)phenyl)-[1,2,4]triazolo[4,3-a]pyridin-3(2H)-one] here?
**A.** 16.7%

**Q.** For CC(Cn1nc2ccc(-c3ccc(OC(F)(F)F)cc3)cn2c1=O)c1ccccn1 (stereo not drawn) [compound 102, 2-(2-(pyridin-2-yl)propyl)-6-(4-(trifluoromethoxy)phenyl)-[1,2,4]triazolo[4,3-a]pyridin-3(2H)-one], which inhibition at 1 µM is on record?
**A.** 36.2%

**Q.** With COC[C@@H](Cn1nc2ccc(-c3ccc(OC(F)(F)F)cc3)cn2c1=O)Oc1ncccc1C(F)(F)F [compound 72, (R)-2-(3-methoxy-2-(3-(trifluoromethyl)pyridin-2-yloxy)propyl)-6-(4-(trifluoromethoxy)phenyl)-[1,2,4]triazolo[4,3-a]pyridin-3(2H)-one] as the compound, how does the inhibition at 1 µM read?
**A.** 41.9%

**Q.** With Cc1nnc(Cn2nc3ccc(-c4ccc(OC(F)(F)F)cc4)cn3c2=O)o1 [compound 18, 2-((5-methyl-1,3,4-oxadiazol-2-yl)methyl)-6-(4-(trifluoromethoxy)phenyl)-[1,2,4]triazolo[4,3-a]pyridin-3(2H)-one] as the compound, how does the inhibition at 1 µM read?
**A.** 11.5%

**Q.** How did the inhibition at 1 µM turn out when O=c1n(Cc2noc(C3CC3)n2)nc2ccc(-c3ccc(OC(F)(F)F)cc3)cn12 [compound 142, 2-((5-cyclopropyl-1,2,4-oxadiazol-3-yl)methyl)-6-(4-(trifluoromethoxy)phenyl)-[1,2,4]triazolo[4,3-a]pyridin-3(2H)-one] was run?
**A.** 20%

**Q.** O=c1n(CCOc2nccc(Oc3ccc(Cl)cc3)n2)nc2ccc(-c3ccc(OC(F)(F)F)cc3)cn12 [compound 132, 2-(2-(4-(4-chlorophenoxy)pyrimidin-2-yloxy)ethyl)-6-(4-(trifluoromethoxy)phenyl)-[1,2,4]triazolo[4,3-a]pyridin-3(2H)-one] was tested. Which inhibition at 1 µM did it give?
**A.** 11%

**Q.** For CC(C)(C)c1cnc(Cn2nc3ccc(-c4ccc(OC(F)(F)F)cc4)cn3c2=O)o1 [compound 183, 2-((5-tert-butyloxazol-2-yl)methyl)-6-(4-(trifluoromethoxy)phenyl)-[1,2,4]triazolo[4,3-a]pyridin-3(2H)-one], which inhibition at 1 µM is on record?
**A.** 14.6%

**Q.** Cc1cc(Cn2nc3ccc(-c4ccc(OC(F)(F)F)cc4)cn3c2=O)on1 [compound 164, 2-((3-methylisoxazol-5-yl)methyl)-6-(4-(trifluoromethoxy)phenyl)-[1,2,4]triazolo[4,3-a]pyridin-3(2H)-one] was tested. Which inhibition at 1 µM did it give?
**A.** 16.9%

**Q.** How did the inhibition at 1 µM turn out when O=c1n(CCc2ccc(F)cc2F)nc2ccc(-c3ccc(OC(F)(F)F)cc3)cn12 [compound 78, 2-(2,4-difluorophenethyl)-6-(4-(trifluoromethoxy)phenyl)-[1,2,4]triazolo[4,3-a]pyridin-3(2H)-one] was run?
**A.** 36.7%

**Q.** Which inhibition at 1 µM does the source give for Cc1nc2ccc(OCC(O)Cn3nc4ccc(-c5ccc(OC(F)(F)F)cc5)cn4c3=O)cc2s1 (stereo not drawn) [compound 107, 2-(2-hydroxy-3-(2-methylbenzo[d]thiazol-6-yloxy)propyl)-6-(4-(trifluoromethoxy)phenyl)-[1,2,4]triazolo[4,3-a]pyridin-3(2H)-one] here?
**A.** 22.4%

**Q.** With Cc1ccn(CCn2nc3ccc(-c4ccc(OC(F)(F)F)cc4)cn3c2=O)n1 [compound 42, 2-(2-(3-methyl-1H-pyrazol-1-yl)ethyl)-6-(4-(trifluoromethoxy)phenyl)-[1,2,4]triazolo[4,3-a]pyridin-3(2H)-one] as the compound, how does the inhibition at 1 µM read?
**A.** 18.9%
